# Results as given in article PMC11520566, “Discovery of pyrazole-based analogs as CDK2 inhibitors with apoptotic-inducing activity: design, synthesis and molecular dynamics study” (RSC Advances, 2024).
# Where two headings read alike, the source gives them in different places.
# Tests used:
# Assay type in all cases: cell-based, human
# U251 = experiment: NCI 60 five dose assay, CNS cancer
# OVCAR-3 = experiment: NCI 60 five dose assay, Ovarian cancer
# UACC-257 = experiment: NCI 60 single dose screen, Melanoma; settings: single dose 10 μM
# Method: The newly synthesized pyrazoles 2a–g, 7a–d, 8a and b, 9, and 10 were submitted to the National Cancer Institute (NCI) Developmental Therapeutics Program (http://www.dtp.nci.nih.gov) for assessment of their potential antiproliferative activity against a panel of NCI 60 cancer cell lines. All compounds were approved for screening against the approved 60 cancer cell lines at a single dose of 10 μM. The human cancer cell lines were derived from 9 variant cancer types including leukemia, melanoma, lung, colon, CNS, ovarian, renal, prostate and breast cancers. The results are presented as percentage of growth inhibition (GI%) of the screened compounds against the full panel of cell lines.
# Under sterile conditions, the cell lines were grown in RPMI 1640 media (Gibco, NY, USA) supplemented with 10% fetal bovine serum (Biocell, CA, USA), and […] cell/mL was used to test the growth inhibition activity of the synthesized compounds. The compounds with concentrations ranging from 0.01 to 100 μM were prepared in phosphate buffer saline. Each compound was initially solubilized in dimethyl sulfoxide (DMSO); however, each final dilution contained less than 1% DMSO. Solutions of different concentrations (0.2 mL) were pipetted into the separate well of a microtiter tray in duplicate. Cell culture (1.8 mL) containing a cell population of […] cells per mL was pipetted into each well. Controls, containing only phosphate buffer saline and DMSO at identical dilutions, were also prepared in the same manner. These cultures were incubated in a humidified incubator at 37 °C. The incubator was supplied with 5% CO2 atmosphere. After 48 h, the cells in each well were diluted 10 times with saline and counted using a Coulter counter. The counts were corrected for the dilution.[34]
# NCI-H522 = experiment: NCI 60 five dose assay, Non-small cell lung cancer
# A498 = experiment: NCI 60 five dose assay, Renal cancer
# MALME-3M = experiment: NCI 60 five dose assay, Melanoma; settings: for Percent Growth: MALME-3M
# HL-60(TB) = experiment: NCI 60 five dose assay, Leukemia
# SN12C = experiment: NCI 60 five dose assay, Renal cancer
# HOP-92 = experiment: NCI 60 five dose assay, Non-small cell lung cancer
# NCI 60 cell panel = experiment: NCI 60 five dose assay, subpanel and full panel means
# 786-0 = experiment: NCI 60 five dose assay, Renal cancer
# [1] = Homo sapiens, read-out: LC50 (the source's name)
compound,measurement,setting,value
"CC(=NNc1ccc(S(N)(=O)=O)cc1)c1ccc(NN=C2C(=O)NN=C2Nc2ccccc2)cc1 [Compound 4, 4-(2-(1-(4-(2-(5-oxo-3-(phenylamino)-1,5-dihydro-4H-pyrazol-4-ylidene)hydrazinyl)phenyl)ethylidene)hydrazinyl)benzene sulfonamide]",GI50,"U251; Homo sapiens, U-251",1.88 µM
same,CC50,"U251; Homo sapiens, U-251, read-out: LC50 (the source's name)",7.51 µM
same,Percent Growth,U251; Log10 Concentration -4.0 Molar,-100%
same,Percent Growth,U251; Log10 Concentration -5.0 Molar,-71%
same,Percent Growth,U251; Log10 Concentration -6.0 Molar,96%
same,Percent Growth,U251; Log10 Concentration -7.0 Molar,105%
same,Percent Growth,U251; Log10 Concentration -8.0 Molar,95%
same,GI50,OVCAR-3; Homo sapiens,1.87 µM
same,CC50,OVCAR-3; [1],12.5 µM
same,Percent Growth,OVCAR-3; Log10 Concentration -4.0 Molar,-100%
same,Percent Growth,OVCAR-3; Log10 Concentration -5.0 Molar,-45%
same,Percent Growth,OVCAR-3; Log10 Concentration -6.0 Molar,86%
same,Percent Growth,OVCAR-3; Log10 Concentration -7.0 Molar,89%
same,Percent Growth,OVCAR-3; Log10 Concentration -8.0 Molar,82%
same,GI%,UACC-257,94.37%
same,GI50,NCI-H522; Homo sapiens,2.17 µM
same,CC50,NCI-H522; [1],74.8 µM
same,Percent Growth,NCI-H522; Log10 Concentration -4.0 Molar,-52%
same,Percent Growth,NCI-H522; Log10 Concentration -5.0 Molar,-36%
same,Percent Growth,NCI-H522; Log10 Concentration -6.0 Molar,94%
same,Percent Growth,NCI-H522; Log10 Concentration -7.0 Molar,97%
same,Percent Growth,NCI-H522; Log10 Concentration -8.0 Molar,89%
same,GI50,A498; Homo sapiens,11.4 µM
same,CC50,A498; [1],94.7 µM
same,Percent Growth,A498; Log10 Concentration -4.0 Molar,-53%
same,Percent Growth,A498; Log10 Concentration -5.0 Molar,56%
same,Percent Growth,A498; Log10 Concentration -6.0 Molar,87%
same,Percent Growth,A498; Log10 Concentration -7.0 Molar,87%
same,Percent Growth,A498; Log10 Concentration -8.0 Molar,77%
same,GI50,"MALME-3M; Homo sapiens, Malme-3M",1.98 µM
same,CC50,"MALME-3M; Homo sapiens, Malme-3M, read-out: LC50 (the source's name)",7.49 µM
same,Percent Growth,MALME-3M; Log10 Concentration -4.0 Molar,-100%
same,Percent Growth,MALME-3M; Log10 Concentration -5.0 Molar,-72%
same,Percent Growth,MALME-3M; Log10 Concentration -6.0 Molar,102%
same,Percent Growth,MALME-3M; Log10 Concentration -7.0 Molar,97%
same,Percent Growth,MALME-3M; Log10 Concentration -8.0 Molar,89%
same,GI50,HL-60(TB); Homo sapiens,2.86 µM
same,CC50,HL-60(TB); [1],60.5 µM
same,Percent Growth,HL-60(TB); Log10 Concentration -4.0 Molar,-70%
same,Percent Growth,HL-60(TB); Log10 Concentration -5.0 Molar,21%
same,Percent Growth,HL-60(TB); Log10 Concentration -6.0 Molar,74%
same,Percent Growth,HL-60(TB); Log10 Concentration -7.0 Molar,87%
same,Percent Growth,HL-60(TB); Log10 Concentration -8.0 Molar,89%
same,GI50,SN12C; Homo sapiens,2.38 µM
same,CC50,SN12C; [1],23.5 µM
same,Percent Growth,SN12C; Log10 Concentration -4.0 Molar,-100%
same,Percent Growth,SN12C; Log10 Concentration -5.0 Molar,-21%
same,Percent Growth,SN12C; Log10 Concentration -6.0 Molar,93%
same,Percent Growth,SN12C; Log10 Concentration -7.0 Molar,92%
same,Percent Growth,SN12C; Log10 Concentration -8.0 Molar,95%
same,GI50,HOP-92; Homo sapiens,1.3 µM
same,CC50,HOP-92; [1],30.7 µM
same,Percent Growth,HOP-92; Log10 Concentration -4.0 Molar,-89%
same,Percent Growth,HOP-92; Log10 Concentration -5.0 Molar,-13%
same,Percent Growth,HOP-92; Log10 Concentration -6.0 Molar,58%
same,Percent Growth,HOP-92; Log10 Concentration -7.0 Molar,81%
same,Percent Growth,HOP-92; Log10 Concentration -8.0 Molar,74%
same,GI50,"NCI 60 cell panel; Colon cancer subpanel, read-out: MG-MID for GI50",3.33 µM
same,GI50,"NCI 60 cell panel; Homo sapiens, 60 cell, Breast cancer subpanel, read-out: MG-MID for GI50",2.36 µM
same,GI50,"NCI 60 cell panel; Homo sapiens, 60 cell, CNS cancer subpanel, read-out: MG-MID for GI50",2.39 µM
same,GI50,"NCI 60 cell panel; Homo sapiens, 60 cell, Colon cancer subpanel, read-out: MG-MID for GI50",3.33 µM
same,GI50,"NCI 60 cell panel; Homo sapiens, 60 cell, Leukemia subpanel, read-out: MG-MID for GI50",2.42 µM
same,GI50,"NCI 60 cell panel; Homo sapiens, 60 cell, Melanoma subpanel, read-out: MG-MID for GI50",2.47 µM
same,GI50,"NCI 60 cell panel; Homo sapiens, 60 cell, Non-small cell lung cancer subpanel, read-out: MG-MID for GI50",4.79 µM
same,GI50,"NCI 60 cell panel; Homo sapiens, 60 cell, Ovarian cancer subpanel, read-out: MG-MID for GI50",4.19 µM
same,GI50,"NCI 60 cell panel; Homo sapiens, 60 cell, Prostate cancer subpanel, read-out: MG-MID for GI50",3.13 µM
same,GI50,"NCI 60 cell panel; Homo sapiens, 60 cell, Renal cancer subpanel, read-out: MG-MID for GI50",9.18 µM
same,GI50,"NCI 60 cell panel; Homo sapiens, 60 cell, against almost the whole panel of cancer cell lines, read-out: GI50 range",1.1 to 5.9 µM
same,GI50,"NCI 60 cell panel; Homo sapiens, 60 cell, average over all cell lines, read-out: Full panel MG-MID (GI50)",3.81 µM
same,GI50,"NCI 60 cell panel; Homo sapiens, 60 cell, range over the nine subpanels, read-out: subpanel GI50 (MG-MID) range",2.36 to 9.17 µM
same,GI50,"NCI 60 cell panel; Melanoma subpanel, read-out: MG-MID for GI50",2.48 µM
same,GI50,"NCI 60 cell panel; Prostate cancer subpanel, read-out: MG-MID for GI50",3.14 µM
same,Selectivity index,NCI 60 cell panel; full panel MG-MID / Breast cancer subpanel MG-MID,1.614
same,Selectivity index,NCI 60 cell panel; full panel MG-MID / CNS cancer subpanel MG-MID,1.595
same,Selectivity index,NCI 60 cell panel; full panel MG-MID / Colon cancer subpanel MG-MID,1.143
same,Selectivity index,NCI 60 cell panel; full panel MG-MID / Leukemia subpanel MG-MID,1.574
same,Selectivity index,NCI 60 cell panel; full panel MG-MID / Melanoma subpanel MG-MID,1.539
same,Selectivity index,NCI 60 cell panel; full panel MG-MID / Non-small cell lung cancer subpanel MG-MID,0.795
same,Selectivity index,NCI 60 cell panel; full panel MG-MID / Ovarian cancer subpanel MG-MID,0.909
same,Selectivity index,NCI 60 cell panel; full panel MG-MID / Prostate cancer subpanel MG-MID,1.215
same,Selectivity index,NCI 60 cell panel; full panel MG-MID / Renal cancer subpanel MG-MID,0.415
same,GI50,786-0; Homo sapiens,2.14 µM
same,CC50,786-0; [1],24.7 µM
same,Percent Growth,786-0; Log10 Concentration -4.0 Molar,-94%
same,Percent Growth,786-0; Log10 Concentration -5.0 Molar,-22%
same,Percent Growth,786-0; Log10 Concentration -6.0 Molar,85%
same,Percent Growth,786-0; Log10 Concentration -7.0 Molar,96%
same,Percent Growth,786-0; Log10 Concentration -8.0 Molar,92%
